Measurements as given in patent EP0177710A1, “Phenyl urea derivatives” (BAYER AG, priority 1984, dated 1986).

Tested on: Unkräutern in Mais
Assay: Post-emergence test / greenhouse
Format: in vivo
Conditions: post-emergence spray, control of weeds in maize, rated after three weeks; compared with comparison substance (A)
From the text: Post-emergence-Test/Gewächshaus
Lösungsmittel: 5 Gewichtsteile Aceton
Emulgator: 1 Gewichtsteil Alkylarylpolyglykolether
Zur Herstellung einer zweckmäßigen Wirkstoffzubereitung vermischt man 1 Gewichtsteil Wirkstoff mit der angegebenen Menge Lösungsmittel, gibt die angegebene Menge Emulgator zu und verdünnt das Konzentrat mit Wasser auf die gewünschte Konzentration.
Mit der Wirkstoffzubereitung spritzt man Testpflanzen, welche eine Höhe von 5 - 15 cm haben so, daß die jeweils gewünschten Wirkstoffmengen pro Flächeneinheit ausgebracht werden. Die Konzentration der Spritzbrühe wird so gewählt, daß in 2000 1 Wasser/ha die jeweils gewünschten Wirkstoffmengen ausgebracht werden. Nach drei Wochen wird der Schädigungsgrad der Pflanzen bonitiert in % Schädigung im Vergleich zur Entwicklung der unbehandelten Kontrolle.
Es bedeuten: • O % = keine Wirkung (wie unbehandelte Kontrolle) 100 % = totale Vernichtung

Q: `CC(C)n1cc(Oc2ccc(NC(=O)N(C)C)cc2)cn1` [I-1] was tested. Which “selektive herbizide Wirksamkeit” value did it give?
A: bessere selektive herbizide Wirksamkeit
